Test results reported in PubChem BioAssay (NCI).
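The concentration for 50% growth inhibition is given as GI50. TGI marks complete inhibition of growth.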

Columns and labels:
Assay in all cases: NCI-60 cell line screen, 384-well format
[1] = tested on: 786-0 renal
[2] = tested on: A498 renal
[3] = tested on: A549 NSCLC
[4] = tested on: ACHN renal
[5] = tested on: BT-549 breast
[6] = tested on: CAKI-1 renal
[7] = tested on: COLO 205 colon
[8] = tested on: HCC-2998 colon
[9] = tested on: HCT-116 colon
[10] = tested on: HCT-15 colon
[11] = tested on: HL-60(TB) leukemia
[12] = tested on: HOP-62 NSCLC
[13] = tested on: HOP-92 NSCLC
[14] = tested on: HS 578T breast
[15] = tested on: IGROV1 ovarian
[16] = tested on: K-562 leukemia
[17] = tested on: KM12 colon
[18] = tested on: M14 melanoma
[19] = tested on: MCF7 breast
[20] = tested on: MDA-MB-231 breast
[21] = tested on: MDA-MB-435 melanoma
[22] = tested on: MOLT-4 leukemia
[23] = tested on: NCI-H226 lung
[24] = tested on: NCI-H23 lung
[25] = tested on: NCI-H322M lung
[26] = tested on: NCI-H460 NSCLC
[27] = tested on: NCI-H522 lung
[28] = tested on: NCI/ADR-RES ovarian
[29] = tested on: OVCAR-3 ovarian
[30] = tested on: OVCAR-5 ovarian
[31] = tested on: PC-3 prostate
[32] = tested on: RPMI-8226 leukemia
[33] = tested on: RXF 393 renal
[34] = tested on: SF-268 CNS
[35] = tested on: SF-539 CNS
[36] = tested on: SK-MEL-2 melanoma
[37] = tested on: SK-MEL-28 melanoma
[38] = tested on: SK-MEL-5 melanoma
[39] = tested on: SK-OV-3 ovarian
[40] = tested on: SN12C renal
[41] = tested on: SNB-75 CNS
[42] = tested on: SR leukemia
[43] = tested on: SW-620 colon
[44] = tested on: TK-10 renal
[45] = tested on: U251 glioblastoma
[46] = tested on: UACC-62 melanoma
[47] = tested on: UO-31 renal

O=C(NC[C@H](O)CN1CCc2ccccc2C1)c1cc(NC2COC2)ncn1
GI50 [1]: > 100 µM
TGI [1]: > 100 µM
GI50 [2]: > 100 µM
TGI [2]: > 100 µM
GI50 [3]: > 100 µM
TGI [3]: > 100 µM
GI50 [4]: > 100 µM
TGI [4]: > 100 µM
GI50 [5]: > 100 µM
TGI [5]: > 100 µM
GI50 [6]: > 100 µM
TGI [6]: > 100 µM
GI50 [7]: > 100 µM
TGI [7]: > 100 µM
GI50 [8]: > 100 µM
TGI [8]: > 100 µM
GI50 [9]: > 100 µM
TGI [9]: > 100 µM
GI50 [10]: > 100 µM
TGI [10]: > 100 µM
GI50 [11]: > 28.3 µM
TGI [11]: > 100 µM
GI50 [12]: > 100 µM
TGI [12]: > 100 µM
GI50 [13]: > 100 µM
TGI [13]: > 100 µM
GI50 [14]: > 100 µM
TGI [14]: > 100 µM
GI50 [15]: > 100 µM
TGI [15]: > 100 µM
GI50 [16]: > 100 µM
TGI [16]: > 100 µM
GI50 [17]: > 42.7 µM
TGI [17]: > 100 µM
GI50 [18]: > 100 µM
TGI [18]: > 100 µM
GI50 [19]: > 41.5 µM
TGI [19]: > 100 µM
GI50 [20]: > 100 µM
TGI [20]: > 100 µM
GI50 [21]: > 100 µM
TGI [21]: > 100 µM
GI50 [22]: 0.0768 µM
GI50 [23]: > 100 µM
TGI [23]: > 100 µM
GI50 [24]: > 100 µM
TGI [24]: > 100 µM
GI50 [25]: > 100 µM
TGI [25]: > 100 µM
GI50 [26]: 6 µM
TGI [26]: > 100 µM
GI50 [27]: > 100 µM
TGI [27]: > 100 µM
GI50 [28]: > 100 µM
TGI [28]: > 100 µM
GI50 [29]: > 69.1 µM
TGI [29]: > 100 µM
GI50 [30]: > 100 µM
TGI [30]: > 100 µM
GI50 [31]: > 100 µM
TGI [31]: > 100 µM
GI50 [32]: > 47.7 µM
TGI [32]: > 100 µM
GI50 [33]: > 100 µM
TGI [33]: > 100 µM
GI50 [34]: > 100 µM
TGI [34]: > 100 µM
GI50 [35]: > 100 µM
TGI [35]: > 100 µM
GI50 [36]: > 100 µM
TGI [36]: > 100 µM
GI50 [37]: > 100 µM
TGI [37]: > 100 µM
GI50 [38]: > 100 µM
TGI [38]: > 100 µM
GI50 [39]: > 100 µM
TGI [39]: > 100 µM
GI50 [40]: > 100 µM
TGI [40]: > 100 µM
GI50 [41]: > 100 µM
TGI [41]: > 100 µM
GI50 [42]: 0.117 µM
TGI [42]: 8.35 µM
GI50 [43]: > 100 µM
TGI [43]: > 100 µM
GI50 [44]: > 100 µM
TGI [44]: > 100 µM
GI50 [45]: > 100 µM
TGI [45]: > 100 µM
GI50 [46]: > 100 µM
TGI [46]: > 100 µM
GI50 [47]: > 100 µM
TGI [47]: > 100 µM

CN1CCN(c2ccc(Nc3cc(-c4cccc(-n5ccc6cc(C7CC7)cc(F)c6c5=O)c4CO)cn(C)c3=O)nc2)CC1
GI50 [1]: 1.69 µM
TGI [1]: 3.39 µM
GI50 [2]: 2.05 µM
TGI [2]: 3.96 µM
GI50 [3]: 3.1 µM
TGI [3]: 10.5 µM
GI50 [4]: 1.6 µM
TGI [4]: 3.01 µM
GI50 [5]: 2.24 µM
TGI [5]: 5.29 µM
GI50 [6]: 2.18 µM
TGI [6]: 5.6 µM
GI50 [7]: 2.02 µM
TGI [7]: 3.69 µM
GI50 [8]: 2.09 µM
TGI [8]: 5.3 µM
GI50 [9]: 1.71 µM
TGI [9]: 3.26 µM
GI50 [10]: 2.45 µM
TGI [10]: 7.4 µM
GI50 [11]: 1.84 µM
TGI [11]: 3.25 µM
GI50 [12]: 2.77 µM
TGI [12]: 7.57 µM
GI50 [13]: 2.11 µM
TGI [13]: 4.78 µM
GI50 [14]: 1.82 µM
TGI [14]: 3.48 µM
GI50 [15]: 2.89 µM
TGI [15]: 9.19 µM
GI50 [16]: 1.77 µM
TGI [16]: 3.33 µM
GI50 [17]: 2.4 µM
TGI [17]: 5.1 µM
GI50 [18]: 2.01 µM
TGI [18]: 3.54 µM
GI50 [19]: 1.79 µM
TGI [19]: 4.37 µM
GI50 [20]: 1.95 µM
TGI [20]: 3.92 µM
GI50 [21]: 3.59 µM
TGI [21]: 11.7 µM
GI50 [22]: 1.51 µM
TGI [22]: 2.85 µM
GI50 [23]: 1.99 µM
TGI [23]: 4.03 µM
GI50 [24]: 2.73 µM
TGI [24]: 8.14 µM
GI50 [25]: 3.91 µM
TGI [25]: 9.99 µM
GI50 [26]: 2.06 µM
TGI [26]: 4.14 µM
GI50 [27]: 2.05 µM
TGI [27]: 4.02 µM
GI50 [28]: 2.51 µM
TGI [28]: 5.66 µM
GI50 [29]: 1.79 µM
TGI [29]: 3.28 µM
GI50 [30]: 1.94 µM
TGI [30]: 3.97 µM
GI50 [31]: 3.78 µM
TGI [31]: 12.1 µM
GI50 [32]: 2.06 µM
TGI [32]: 3.56 µM
GI50 [33]: 1.6 µM
TGI [33]: 3.11 µM
GI50 [34]: 2.4 µM
TGI [34]: 7.46 µM
GI50 [35]: 1.71 µM
TGI [35]: 3.14 µM
GI50 [36]: 1.8 µM
TGI [36]: 3.34 µM
GI50 [37]: 1.71 µM
TGI [37]: 3.11 µM
GI50 [38]: 1.62 µM
TGI [38]: 3.02 µM
GI50 [39]: 2.59 µM
TGI [39]: 6.61 µM
GI50 [40]: 1.76 µM
TGI [40]: 3.63 µM
GI50 [41]: 1.73 µM
TGI [41]: 3.44 µM
GI50 [42]: 1.58 µM
TGI [42]: 2.94 µM
GI50 [43]: 2.61 µM
TGI [43]: 6.97 µM
GI50 [44]: 2.32 µM
TGI [44]: 5.77 µM
GI50 [45]: 2.2 µM
TGI [45]: 4.54 µM
GI50 [46]: 1.74 µM
TGI [46]: 3.16 µM
GI50 [47]: 1.77 µM
TGI [47]: 3.19 µM
